The values that follow come from patent publication US4276304A, “Novel benzylalcohol derivative and process for preparing the same” (priority 1979, dated 1981).

Values joined by “and” are separate entries in the source; they are usually repeats but may differ in a detail not shown here. Equal entries are not always repeated. Where two headings read alike, the source gives them in different places.

The test system of series [1] is blood sugar. Put plainly: Blood sugar-lowering activity (oral test compound, subcutaneous glucose load). Conditions: for minimal effective dose: Mus musculus, 1 h, read-out: Minimum effective dose (blood sugar-lowering activity). It is filed as in vivo, male ddY mice. Here is the method: For example, when the blood sugar-lowering activity was estimated by orally administering a test compound to mice immediately before subcutaneous injection of glucose, said activity of the compound of the present invention was about 100 to about 1000 times stronger than that of Phenformin (Chemical name: 1-phenethylbiguanide).
An aqueous solution or suspension (10 ml/kg) of a test compound was administered orally through a stomach tube to a group of male ddY mice (each group consisting of five mice) which fasted for 20 hours. A physiological saline solution (10 ml/kg) containing 10 w/v % glucose was injected subcutaneously to the mice immediately after the oral administration of the test compound. One hour after the injection of glucose, 0.02 ml of blood was collected from the tail vein of the mice. Then, the amount of glucose in the blood sample was estimated by the glucose oxidase method (H. U. Bergmeyer & E. Bernt, "Methods of Enzymatic Analysis", H. U. Bergmeyer (Ed.), Acadamic Press, New York & London, 1963, page 123). The blood sugar-lowering activity of the test compound was calculated by the following formula: [formula] Further, on the basis of the potency ratio calculated above, the activity of the test compound was expressed as follows: […]

The test system of a further series is mice. Put plainly: Acute toxicity / maximum tolerance dose (intraperitoneal injection). It is filed as in vivo. Conditions: 48 hours after intraperitoneal injection. Here is the method:
For example, the maximum tolerance dose (M.T.D.) of α-[(α,α-dimethyl-3,4-dimethoxyphenethylamino)methyl]-2-benzyloxybenzylalcohol oxalate and α-[(α,α-dimethyl-3,4-dimethoxyphenethylamino)methyl]-2-chlorobenzylalcohol hydrochloride which was estimated 48 hours after intraperitoneal injection thereof to a group of 4 mice was not less than 100 mg/kg.

The subject of the next series is blood platelets. Put plainly: Preventive effect upon the aggregation of blood platelets (collagen-induced, platelet-rich plasma). It is filed as cell-based, male Sprague-Dawley rats. Conditions: for inhibition at 100 µg/mL: Rattus norvegicus, Platelet.
Series [2] concerns blood sugar. Conditions: U.S. Pat. Nos. 4,032,575 and 4,131,686, Japanese Patent Publication No. 71428/1977; cited from earlier work.
[3] abbreviates: 100 μg/ml, graded against acetylsalicylic acid 100 μg/ml.
Setting [4] is: test compound 100 μg/ml, collagen, rat PRP.
Setting [5] is: read-out: Inhibition (%) against platelet aggregation, A* (test compound group).

For the molecule “α-[(α,α-dimethyl-3,4-dimethoxyphenethylamino)methyl]-2-chlorobenzylalcohol hydrochloride [Test compound 10]”, in the series with blood sugar [1] (oral, mice), the “Minimum effective dose (blood sugar-lowering activity)” value was 1.0 mg/kg. Also, in the series on mice, the “maximum tolerance dose (M.T.D.)” value is reported as “not less than 100 mg/kg”. The “Platelet aggregation inhibiting activity” value with blood platelets (setting [3]) is reported as “++”. In addition, the “Inhibition (%) against platelet aggregation, A* (test compound group)” value (“Inhibition (%) … (test compound group)” for short) in the series with blood platelets (setting [4]) was 84%.
For “α-[(α,α-dimethyl-2,3,4-trimethoxyphenethylamino)methyl]- 2-benzyloxybenzylalcohol 1/2 oxalate [Test compound 12]”, the “Minimum effective dose (blood sugar-lowering activity)” value with blood sugar [1] (oral, mice) is recorded as 1.0 mg/kg. Besides, in the series on blood platelets (setting [3]), the “Platelet aggregation inhibiting activity” value is recorded as “++”. In addition, in the series with blood platelets (setting [4]), the “Inhibition (%) … (test compound group)” value is reported as 85%.
With `COc1ccc(CCNCC(O)c2ccccc2OCc2ccccc2)cc1OC` (stereo not drawn) [α-[(3,4-dimethoxyphenethylamino)methyl]-2-benzyloxybenzylalcohol], in the series with blood sugar [2], the “blood sugar-lowering activity (in words)” value is reported as “show a blood sugar-lowering activity”.
With “α-[(α,α-dimethyl-2,3,4-trimethoxyphenethylamino)methyl]- 2-methoxybenzylalcohol hydrochloride [Test compound 13]”, the “Minimum effective dose (blood sugar-lowering activity)” value in the series on blood sugar [1] (oral, mice) came out at 1.0 mg/kg. Besides, the “Platelet aggregation inhibiting activity” value in the series on blood platelets (setting [3]) was “+ (not less than 10% inhibition of platelet aggregation but said percentage inhibition was not higher than that of acetylsalicylic acid (100 μg/ml))”. Also, in the series on blood platelets (setting [4]), the “Inhibition (%) … (test compound group)” value was 37%.
Consider `COc1ccc(CC(C)(C)NCC(O)c2ccccc2O)cc1` (centres unmarked) [compound 1], for which the minimal effective dose with blood sugar [1] (po) turned out to be 0.3 mg/kg. The “Platelet aggregation inhibiting activity” value in the series with blood platelets (setting [3]) was “++”. For the same molecule, the inhibition at 100 µg/mL in the series on blood platelets (setting [5]) came out at 90%.
“α-[(α,α-dimethyl-3,4-dimethoxyphenethylamino)methyl]-2-methoxybenzylalcohol hydrochloride [Test compound 8]”: in the series with blood sugar [1] (oral, mice), the “Minimum effective dose (blood sugar-lowering activity)” value turned out to be 1.0 mg/kg. The “Platelet aggregation inhibiting activity” value with blood platelets (setting [3]) is on record as “++”. Further, in the series on blood platelets (setting [4]), the “Inhibition (%) … (test compound group)” value worked out at 57%.
Regarding “α-[(α,α-dimethyl-4-methoxyphenethylamino)methyl]-2-methoxybenzylalcohol 1/2 oxalate [Test compound 3]”, the “Minimum effective dose (blood sugar-lowering activity)” value with blood sugar [1] (oral, mice) is reported as 1.0 mg/kg. The “Platelet aggregation inhibiting activity” value with blood platelets (setting [3]) was “+ (not less than 10% inhibition of platelet aggregation but said percentage inhibition was not higher than that of acetylsalicylic acid (100 μg/ml))”. In addition, the “Inhibition (%) … (test compound group)” value in the series with blood platelets (setting [4]) is 57%.
Turning to “α-[(α,α-dimethyl-3,4-methylenedioxyphenethylamino)methyl]-2-benzyloxybenzylalcohol 1/2 oxalate [Test compound 16]”, the “Minimum effective dose (blood sugar-lowering activity)” value in the series with blood sugar [1] (oral, mice) is 0.3 mg/kg. In the series with blood platelets (setting [3]), the “Platelet aggregation inhibiting activity” value is listed as “+ (not less than 10% inhibition of platelet aggregation but said percentage inhibition was not higher than that of acetylsalicylic acid (100 μg/ml))”. Also, the “Inhibition (%) … (test compound group)” value with blood platelets (setting [4]) is 29%.
“α-[(α,α-dimethyl-2,3,4-trimethoxyphenethylamino)methyl]- 2-hydroxybenzylalcohol 1/2 oxalate [Test compound 11]”: the “Minimum effective dose (blood sugar-lowering activity)” value in the series on blood sugar [1] (oral, mice) stood at 1.0 mg/kg. Also, the “Platelet aggregation inhibiting activity” value in the series with blood platelets (setting [3]) was “++”. Also, the “Inhibition (%) … (test compound group)” value in the series on blood platelets (setting [4]) was 59%.
Turning to `COc1ccc(CC(C)(C)NCC(O)c2ccccc2Cl)cc1.Cl` (stereo not drawn) [Test compound 5, α-[(α,α-dimethyl-4-methoxyphenethylamino)-methyl]-2-chlorobenzylalcohol hydrochloride], the minimal effective dose with blood sugar [1] (po) is 0.1 mg/kg.
For “α-[(α,α-dimethyl-4-methoxyphenethylamino)methyl]-2-benzyloxybenzylalcohol hydrochloride [Example 7]”, the “Minimum effective dose (blood sugar-lowering activity)” value in the series on blood sugar [1] (oral, mice) amounted to 0.3 mg/kg. In the series with blood platelets (setting [3]), the “Platelet aggregation inhibiting activity” value is reported as “++”. Further, the “Inhibition (%) … (test compound group)” value in the series on blood platelets (setting [4]) was 90%.
As to “α-[(α,α-dimethyl-3,4-dimethoxyphenethylamino)methyl]-2-benzyloxybenzylalcohol oxalate [Test compound 7]”, the “Minimum effective dose (blood sugar-lowering activity)” value with blood sugar [1] (oral, mice) was 0.3 mg/kg. Moreover, the “maximum tolerance dose (M.T.D.)” value with mice is given as “not less than 100 mg/kg”. Further, in the series with blood platelets (setting [3]), the “Platelet aggregation inhibiting activity” value was “+ (not less than 10% inhibition of platelet aggregation but said percentage inhibition was not higher than that of acetylsalicylic acid (100 μg/ml))”. In addition, the “Inhibition (%) … (test compound group)” value with blood platelets (setting [4]) is reported as 17%.
As to `COc1ccc(CCNCC(O)c2ccccc2O)cc1OC` (stereo not drawn) [α-[(3,4-dimethoxyphenethylamino)methyl]-2-hydroxybenzylalcohol, reference compound], the “blood sugar-lowering activity (in words)” value with blood sugar [2] is “show a blood sugar-lowering activity”. The “preventive effect upon the aggregation of blood platelets (in words)” value in the series with blood platelets is “no substantial preventive effect”.
On to `CCCCOc1ccccc1C(O)CNC(C)(C)Cc1ccc(OC)cc1` (centres unmarked) [compound 4], for which, in the series with blood sugar [1] (oral, mice), the minimal effective dose is 0.3 mg/kg.
On to “α-[(α,α-dimethyl-3,4-dimethoxyphenethylamino)methyl]-2-hydroxybenzylalcohol 1/2 oxalate [Test compound 6]”, for which the “Minimum effective dose (blood sugar-lowering activity)” value in the series with blood sugar [1] (oral, mice) came out at 1.0 mg/kg. The “Platelet aggregation inhibiting activity” value in the series on blood platelets (setting [3]) is given as “++”.
For “α-[(α,α-dimethyl-2,3,4-trimethoxyphenethylamino)methyl]- 2-chlorobenzylalcohol hydrochloride [Test compound 14]”, the “Minimum effective dose (blood sugar-lowering activity)” value in the series with blood sugar [1] (oral, mice) is 0.1 mg/kg. In addition, the “Platelet aggregation inhibiting activity” value with blood platelets (setting [3]) is “++”. Besides, the “Inhibition (%) … (test compound group)” value with blood platelets (setting [4]) is on record as 93%.
As to `CC(=O)Oc1ccccc1C(=O)O` [acetylsalicylic acid, reference compound], the “Inhibition (%) against platelet aggregation, B** (acetylsalicylic acid group)” value with blood platelets (acetylsalicylic acid 100 μg/ml, comparison group for the test compound of the same line) was 31% and 58% and 50% and 56% and 54%.
As to `COc1ccc(CC(C)(C)NCC(O)c2ccccc2OC)cc1` (centres unmarked) [compound 3], in the series on blood sugar [1] (po), the minimal effective dose turned out to be 0.1 mg/kg. Moreover, the “Platelet aggregation inhibiting activity” value with blood platelets (setting [3]) was “++”. For the same molecule, the inhibition at 100 µg/mL in the series with blood platelets (setting [5]) turned out to be 80%.
“α-[(α,α-dimethyl-4-methoxyphenethylamino)methyl]-2-hydroxybenzylalcohol 1/2 oxalate [Test compound 1]”: the “Minimum effective dose (blood sugar-lowering activity)” value in the series with blood sugar [1] (oral, mice) worked out at 0.3 mg/kg. Besides, the “Platelet aggregation inhibiting activity” value in the series with blood platelets (setting [3]) is “+ (not less than 10% inhibition of platelet aggregation but said percentage inhibition was not higher than that of acetylsalicylic acid (100 μg/ml))”. Also, in the series with blood platelets (setting [4]), the “Inhibition (%) … (test compound group)” value is on record as 22%.
`COc1ccc(CC(C)(C)NCC(O)c2ccccc2OCc2ccccc2)cc1` (centres unmarked) [compound 2]: the minimal effective dose in the series on blood sugar [1] (oral, mice) was 1 mg/kg. The inhibition at 100 µg/mL with blood platelets (100 μg/ml, graded against acetylsalicylic acid 100 μg/ml, read-out: Platelet aggregation inhibiting activity) was > 10%; in the series with blood platelets (test compound 100 μg/ml, collagen, rat PRP, read-out: Inhibition (%) against platelet aggregation, A* (test compound group)), 27%.
Regarding “α-[(α,α-dimethyl-3,4-methylenedioxyphenethylamino)methyl]-2-methoxybenzylalcohol 1/2 succinate [Test compound 17]”, the “Minimum effective dose (blood sugar-lowering activity)” value in the series with blood sugar [1] (oral, mice) amounted to 2.0 mg/kg.
In the case of “α-[(α,α-dimethyl-4-methoxyphenethylamino)methyl]-2-n-butoxybenzylalcohol hydrochloride [Test compound 4]”, the “Minimum effective dose (blood sugar-lowering activity)” value in the series on blood sugar [1] (oral, mice) is 0.1 mg/kg. Also, the “Platelet aggregation inhibiting activity” value in the series with blood platelets (setting [3]) is reported as “+ (not less than 10% inhibition of platelet aggregation but said percentage inhibition was not higher than that of acetylsalicylic acid (100 μg/ml))”. In addition, in the series on blood platelets (setting [4]), the “Inhibition (%) … (test compound group)” value amounted to 31%.
For “α-[(α,α-dimethyl-3,4-methylenedioxyphenethylamino)methyl]-2-hydroxybenzylalcohol 1/2 oxalate [Test compound 15]”, the “Minimum effective dose (blood sugar-lowering activity)” value in the series with blood sugar [1] (oral, mice) came out at 5.0 mg/kg.
Take “α-[(α,α-dimethyl-3,4-dimethoxyphenethylamino)methyl]-2-n-butoxybenzylalcohol hydrochloride [Test compound 9]”: the “Minimum effective dose (blood sugar-lowering activity)” value with blood sugar [1] (oral, mice) is recorded as 1.0 mg/kg. Also, the “Platelet aggregation inhibiting activity” value in the series on blood platelets (setting [3]) is given as “+ (not less than 10% inhibition of platelet aggregation but said percentage inhibition was not higher than that of acetylsalicylic acid (100 μg/ml))”. Besides, the “Inhibition (%) … (test compound group)” value in the series with blood platelets (setting [4]) is given as 33%.
On to `COc1ccc(CCNCC(O)c2ccccc2OC)cc1OC` (stereo not drawn) [α-[(3,4-dimethoxyphenethylamino)methyl]-2-methoxybenzylalcohol, reference compound], for which the “blood sugar-lowering activity (in words)” value in the series with blood sugar [2] is reported as “show a blood sugar-lowering activity”. Also, in the series with blood platelets, the “preventive effect upon the aggregation of blood platelets (in words)” value was “no substantial preventive effect”.
